{"source": "paper PMC5218480", "about": "(PLoS ONE, 2017)", "test_system": "MV-4-11 cells", "assay": "Gene expression microarray analysis (Affymetrix PrimeView) and GSEA", "type": "cell-based, human", "set-up": "RFU PODN (11730768_x_at) / Fold change /veh PODN (11730768_x_at) / RFU LINC00158 (11744669_a_at) / Fold change /veh LINC00158 (11744669_a_at) / RFU DUSP10 (11751237_a_at) / Fold change /veh DUSP10 (11751237_a_at) / RFU ID3 (11757404_x_at) / Fold change /veh ID3 (11757404_x_at) / RFU PLEKHG5 (11737974_s_at) / Fold change /veh PLEKHG5 (11737974_s_at) / RFU LRRC4B (11730491_at) / Fold change /veh LRRC4B (11730491_at) / RFU GIMAP4 (11747438_a_at) / Fold change /veh GIMAP4 (11747438_a_at) / RFU KRT8 (11758183_x_at) / Fold change /veh KRT8 (11758183_x_at) / RFU CNN1 (11734310_a_at) / Fold change /veh CNN1 (11734310_a_at) / RFU VPS37D (11726825_at) / Fold change /veh VPS37D (11726825_at) / RFU C10orf10 (11716522_x_at) / Fold change /veh C10orf10 (11716522_x_at) / RFU KIR2DL2 /// KIR2DL4 /// KIR2DL5A /// KIR2DL5B /// KIR2DS1 /// KIR2DS2 /// KIR2DS3 /// KIR2DS4 /// KIR3DL3 /// KIR3DL3 /// KIR3DS1 (11738374_at) / Fold change /veh KIR2DL2 /// KIR2DL4 /// KIR2DL5A /// KIR2DL5B /// KIR2DS1 /// KIR2DS2 /// KIR2DS3 /// KIR2DS4 /// KIR3DL3 /// KIR3DL3 /// KIR3DS1 (11738374_at) / RFU C1QL1 (11718748_at) / Fold change /veh C1QL1 (11718748_at) / RFU TMPRSS4 (11747572_a_at) / Fold change /veh TMPRSS4 (11747572_a_at) / RFU HAMP (11756126_x_at) / Fold change /veh HAMP (11756126_x_at) / RFU RNFT2 (11725882_a_at) / Fold change /veh RNFT2 (11725882_a_at) / RFU NR4A2 (11747474_a_at) / Fold change /veh NR4A2 (11747474_a_at) / RFU ABCC12 (11746883_a_at) / Fold change /veh ABCC12 (11746883_a_at) / RFU TMEM136 (11760407_x_at) / Fold change /veh TMEM136 (11760407_x_at) / RFU CLDN22 /// WWC2 (11732394_at) / Fold change /veh CLDN22 /// WWC2 (11732394_at) / RFU HLA-DPB1 (11760878_x_at) / Fold change /veh HLA-DPB1 (11760878_x_at) / RFU SPINT1 (11716480_a_at) / Fold change /veh SPINT1 (11716480_a_at) / RFU GAP43 (11754022_s_at) / Fold change /veh GAP43 (11754022_s_at) / RFU A4GNT (11735810_at) / Fold change /veh A4GNT (11735810_at) / RFU PRB3 (11715151_x_at) / Fold change /veh PRB3 (11715151_x_at) / RFU TUBB4B (11761932_at) / Fold change /veh TUBB4B (11761932_at) / RFU CAPN14 (11732068_a_at) / Fold change /veh CAPN14 (11732068_a_at) / RFU TMCC2 (11721928_a_at) / Fold change /veh TMCC2 (11721928_a_at) / RFU IRGQ (11745062_a_at) / Fold change /veh IRGQ (11745062_a_at) / RFU FAM174B (11720279_a_at) / Fold change /veh FAM174B (11720279_a_at) / RFU TMPRSS4 (11748680_a_at) / Fold change /veh TMPRSS4 (11748680_a_at) / RFU FAM212B (11763350_a_at) / Fold change /veh FAM212B (11763350_a_at) / RFU PLEKHG5 (11743358_a_at) / Fold change /veh PLEKHG5 (11743358_a_at) / RFU ZSCAN30 (11745921_a_at) / Fold change /veh ZSCAN30 (11745921_a_at) / RFU CMKLR1 (11741424_a_at) / Fold change /veh CMKLR1 (11741424_a_at) / RFU LOC101060620 /// MAPK8IP1 (11723275_at) / Fold change /veh LOC101060620 /// MAPK8IP1 (11723275_at) / RFU SPTSSB (11747773_x_at) / Fold change /veh SPTSSB (11747773_x_at) / RFU PRSS12 (11739890_at) / Fold change /veh PRSS12 (11739890_at) / RFU BIN1 (11741810_x_at) / Fold change /veh BIN1 (11741810_x_at) / RFU WNT11 (11732464_a_at) / Fold change /veh WNT11 (11732464_a_at) / RFU C10orf10 (11716521_a_at) / Fold change /veh C10orf10 (11716521_a_at) / RFU C5orf56 (11738089_at) / Fold change /veh C5orf56 (11738089_at) / RFU CYB561 (11721691_x_at) / Fold change /veh CYB561 (11721691_x_at) / RFU ANKRD19P (11752326_a_at) / Fold change /veh ANKRD19P (11752326_a_at) / RFU OR2T12 /// OR2T33 /// OR2T8 (11738714_s_at) / Fold change /veh OR2T12 /// OR2T33 /// OR2T8 (11738714_s_at) / RFU VCAN (11748164_a_at) / Fold change /veh VCAN (11748164_a_at) / RFU JSRP1 (11732532_at) / Fold change /veh JSRP1 (11732532_at) / RFU KRTAP10-11 (11738290_x_at) / Fold change /veh KRTAP10-11 (11738290_x_at) / RFU MYO3A (11730013_a_at) / Fold change /veh MYO3A (11730013_a_at) / RFU EBF3 (11725865_a_at) / Fold change /veh EBF3 (11725865_a_at) / RFU CAMK2N1 (11719241_x_at) / Fold change /veh CAMK2N1 (11719241_x_at) / RFU C5orf56 (11738088_a_at) / Fold change /veh C5orf56 (11738088_a_at) / RFU OLFML3 (11715873_a_at) / Fold change /veh OLFML3 (11715873_a_at) / RFU LOC100653217 /// NTM (11731650_a_at) / Fold change /veh LOC100653217 /// NTM (11731650_a_at) / RFU MAPK11 (11762145_a_at) / Fold change /veh MAPK11 (11762145_a_at) / RFU FIZ1 (11724087_x_at) / Fold change /veh FIZ1 (11724087_x_at) / RFU OASL (11726364_x_at) / Fold change /veh OASL (11726364_x_at) / RFU SOX15 (11748057_x_at) / Fold change /veh SOX15 (11748057_x_at) / RFU CD79A (11719716_a_at) / Fold change /veh CD79A (11719716_a_at) / RFU HIST1H1D (11736915_at) / Fold change /veh HIST1H1D (11736915_at) / RFU CASKIN2 (11723855_a_at) / Fold change /veh CASKIN2 (11723855_a_at) / RFU LOC730098 (11760151_x_at) / Fold change /veh LOC730098 (11760151_x_at) / RFU OR4N2 (11742367_at) / Fold change /veh OR4N2 (11742367_at) / RFU PRRT2 (11749266_a_at) / Fold change /veh PRRT2 (11749266_a_at) / RFU SNX32 (11753110_a_at) / Fold change /veh SNX32 (11753110_a_at) / RFU CDHR5 (11726645_a_at) / Fold change /veh CDHR5 (11726645_a_at) / RFU RCAN1 (11760418_a_at) / Fold change /veh RCAN1 (11760418_a_at) / RFU FAM167A (11723789_a_at) / Fold change /veh FAM167A (11723789_a_at) / RFU FAM26E (11764081_at) / Fold change /veh FAM26E (11764081_at) / RFU ISYNA1 (11749810_s_at) / Fold change /veh ISYNA1 (11749810_s_at) / RFU ACY1 (11761880_at) / Fold change /veh ACY1 (11761880_at) / RFU 11764098_at / Fold change /veh 11764098_at / RFU SAMD14 (11745864_x_at) / Fold change /veh SAMD14 (11745864_x_at) / RFU NPB (11741838_a_at) / Fold change /veh NPB (11741838_a_at) / RFU TMPRSS6 (11731388_a_at) / Fold change /veh TMPRSS6 (11731388_a_at) / RFU KRTAP10-2 (11738614_at) / Fold change /veh KRTAP10-2 (11738614_at) / RFU ARHGAP8 /// PRR5-ARHGAP8 (11727945_x_at) / Fold change /veh ARHGAP8 /// PRR5-ARHGAP8 (11727945_x_at) / RFU KRTAP5-7 /// NADSYN1 (11734609_at) / Fold change /veh KRTAP5-7 /// NADSYN1 (11734609_at) / RFU RASL12 (11751679_a_at) / Fold change /veh RASL12 (11751679_a_at) / RFU CDKN2B (11736163_a_at) / Fold change /veh CDKN2B (11736163_a_at) / RFU PRF1 (11729649_at) / Fold change /veh PRF1 (11729649_at) / RFU, ZNF638 /// ZNF638-IT1 / Fold change vs veh, ZNF638 /// ZNF638-IT1 / RFU, PANK3 / Fold change vs veh, PANK3 / RFU, SH3YL1 / Fold change vs veh, SH3YL1 / RFU, ZEB2 / Fold change vs veh, ZEB2 / RFU, NRIP1 / Fold change vs veh, NRIP1 / RFU, PTTG1IP / Fold change vs veh, PTTG1IP / RFU, CAPN2 / Fold change vs veh, CAPN2 / RFU, MED14 / Fold change vs veh, MED14 / RFU, SNORA58 / Fold change vs veh, SNORA58 / RFU, C1orf63 / Fold change vs veh, C1orf63 / RFU, LRRFIP1 / Fold change vs veh, LRRFIP1 / RFU, NDUFAF7 / Fold change vs veh, NDUFAF7 / RFU, SLC12A2 / Fold change vs veh, SLC12A2 / RFU, IBTK / Fold change vs veh, IBTK / RFU, ESF1 / Fold change vs veh, ESF1 / Fold change vs veh, TMEM50B / RFU, TAOK1 / Fold change vs veh, TAOK1 / RFU, ACBD3 / Fold change vs veh, ACBD3 / RFU, TMA16 / Fold change vs veh, TMA16 / RFU, RWDD3 / Fold change vs veh, RWDD3 / RFU, BCAT1 / Fold change vs veh, BCAT1 / RFU, EDEM3 / Fold change vs veh, EDEM3 / RFU, TMEM33 / Fold change vs veh, TMEM33 / RFU, WDR75 / Fold change vs veh, WDR75 / RFU, AHCTF1 / Fold change vs veh, AHCTF1 / RFU, TFRC / Fold change vs veh, TFRC / RFU, ZDHHC17 / Fold change vs veh, ZDHHC17 / RFU, NOM1 / Fold change vs veh, NOM1 / RFU, ARL8B / Fold change vs veh, ARL8B / RFU, ZBTB11 / Fold change vs veh, ZBTB11 / RFU, TAMM41 / Fold change vs veh, TAMM41 / RFU, KIAA1704 /// LOC100996395 / Fold change vs veh, KIAA1704 /// LOC100996395 / RFU, ING1 / Fold change vs veh, ING1 / RFU, TRMT61B / Fold change vs veh, TRMT61B / RFU, FUBP3 / Fold change vs veh, FUBP3 / RFU, TP53 / Fold change vs veh, TP53 / RFU, TNKS2 / Fold change vs veh, TNKS2 / RFU, ZFP14 / Fold change vs veh, ZFP14 / RFU, ACTR2 / Fold change vs veh, ACTR2 / RFU, PPP3R1 / Fold change vs veh, PPP3R1 / RFU, PIK3R1 / Fold change vs veh, PIK3R1 / RFU, HNRNPA1 / Fold change vs veh, HNRNPA1 / RFU, RNF170 / Fold change vs veh, RNF170 / RFU, ZNF28 / Fold change vs veh, ZNF28 / RFU, RNGTT / Fold change vs veh, RNGTT / RFU, OGT / Fold change vs veh, OGT / RFU, BRD1 / Fold change vs veh, BRD1 / RFU, MARS / Fold change vs veh, MARS / RFU, ZNF655 / Fold change vs veh, ZNF655 / RFU, FAHD1 / Fold change vs veh, FAHD1 / RFU, BDP1 / Fold change vs veh, BDP1 / RFU, LRRCC1 / Fold change vs veh, LRRCC1 / RFU, ARID1A / Fold change vs veh, ARID1A / RFU, ZNF146 / Fold change vs veh, ZNF146 / RFU, ZNF330 / Fold change vs veh, ZNF330 / RFU, GPN3 / Fold change vs veh, GPN3 / RFU, C9orf123 / Fold change vs veh, C9orf123 / RFU, N4BP2L2 / Fold change vs veh, N4BP2L2 / RFU, ARFIP1 / Fold change vs veh, ARFIP1 / RFU, FAM179B / Fold change vs veh, FAM179B / RFU, BCL10 / Fold change vs veh, BCL10 / RFU, UHRF1BP1L / Fold change vs veh, UHRF1BP1L / RFU, BET1 / Fold change vs veh, BET1 / RFU, CNOT2 / Fold change vs veh, CNOT2 / RFU, ZNF268 / Fold change vs veh, ZNF268 / Fold change vs veh, ZNF507 / RFU, DGCR2 / Fold change vs veh, DGCR2 / RFU, WDSUB1 / Fold change vs veh, WDSUB1 / Fold change vs veh, HSP90B1 /// MIR3652 / RFU, ADSS / Fold change vs veh, ADSS / RFU, GK / Fold change vs veh, GK / RFU, ZNF148 / Fold change vs veh, ZNF148 / RFU, TAF9 / Fold change vs veh, TAF9 / RFU, SLC1A5 / Fold change vs veh, SLC1A5 / RFU, SLMO2 / Fold change vs veh, SLMO2 / RFU, ABCC4 / Fold change vs veh, ABCC4 / RFU, LOC101060439 /// RAP1B / Fold change vs veh, LOC101060439 /// RAP1B / RFU, RFX7 / Fold change vs veh, RFX7 / RFU, GTPBP10 / Fold change vs veh, GTPBP10 / RFU, CNEP1R1 / Fold change vs veh, CNEP1R1 / RFU, BIVM-ERCC5 /// ERCC5 / Fold change vs veh, BIVM-ERCC5 /// ERCC5 / RFU, ILF3 / Fold change vs veh, ILF3 / RFU 11762660_at / Fold change /veh 11762660_at / RFU VCAN (11757783_s_at) / Fold change /veh VCAN (11757783_s_at) / RFU DDX43 (11728927_at) / Fold change /veh DDX43 (11728927_at) / RFU KRT8 (11758188_x_at) / Fold change /veh KRT8 (11758188_x_at) / RFU NKD1 (11759106_at) / Fold change /veh NKD1 (11759106_at) / RFU SRD5A1 (11742802_a_at) / Fold change /veh SRD5A1 (11742802_a_at) / RFU TPSAB1 /// TPSB2 (11721975_s_at) / Fold change /veh TPSAB1 /// TPSB2 (11721975_s_at) / RFU GSTM3 (11746129_a_at) / Fold change /veh GSTM3 (11746129_a_at) / RFU IL23R (11737362_x_at) / Fold change /veh IL23R (11737362_x_at) / RFU TMEM51 (11727254_a_at) / Fold change /veh TMEM51 (11727254_a_at) / RFU PIWIL2 (11732686_x_at) / Fold change /veh PIWIL2 (11732686_x_at) / RFU ORM1 (11744905_x_at) / Fold change /veh ORM1 (11744905_x_at) / RFU CCDC152 (11743942_at) / Fold change /veh CCDC152 (11743942_at) / RFU ECM1 (11717891_a_at) / Fold change /veh ECM1 (11717891_a_at) / RFU IL23R (11748794_a_at) / Fold change /veh IL23R (11748794_a_at) / RFU TNFAIP8L3 (11732012_x_at) / Fold change /veh TNFAIP8L3 (11732012_x_at) / RFU MBOAT4 (11741988_at) / Fold change /veh MBOAT4 (11741988_at) / RFU 11764193_at / Fold change /veh 11764193_at / RFU TMEM53 (11763286_at) / Fold change /veh TMEM53 (11763286_at) / RFU MAGEB2 (11727129_at) / Fold change /veh MAGEB2 (11727129_at) / RFU TMEM200A (11744735_a_at) / Fold change /veh TMEM200A (11744735_a_at) / RFU CCDC152 (11751479_a_at) / Fold change /veh CCDC152 (11751479_a_at) / RFU FAM211A (11726209_a_at) / Fold change /veh FAM211A (11726209_a_at) / RFU RGS16 (11746705_a_at) / Fold change /veh RGS16 (11746705_a_at) / RFU VCAN (11755009_s_at) / Fold change /veh VCAN (11755009_s_at) / RFU RHOB (11743442_s_at) / Fold change /veh RHOB (11743442_s_at) / RFU RGS16 (11720943_a_at) / Fold change /veh RGS16 (11720943_a_at) / RFU RGS16 (11720944_at) / Fold change /veh RGS16 (11720944_at) / RFU, VPS4B / Fold change vs veh, VPS4B / RFU, CREB1 / Fold change vs veh, CREB1 / RFU, DNAJC13 / Fold change vs veh, DNAJC13 / RFU, GNAQ / Fold change vs veh, GNAQ / RFU, CDK5R1 / Fold change vs veh, CDK5R1 / RFU, ZRANB3 / Fold change vs veh, ZRANB3 / RFU, CUL4A / Fold change vs veh, CUL4A / RFU, CCNY / Fold change vs veh, CCNY / RFU, UFL1 / Fold change vs veh, UFL1 / RFU, COG3 / Fold change vs veh, COG3 / RFU, DIAPH2 / Fold change vs veh, DIAPH2 / RFU, SKA2 / Fold change vs veh, SKA2 / RFU, AFF3 / Fold change vs veh, AFF3 / RFU, LMF1 / Fold change vs veh, LMF1 / RFU, IPO11 / Fold change vs veh, IPO11 / RFU, DFFB / Fold change vs veh, DFFB / RFU, FOXP1 / Fold change vs veh, FOXP1 / RFU, CARD8 / Fold change vs veh, CARD8 / RFU, STRN3 / Fold change vs veh, STRN3 / RFU, ADK / Fold change vs veh, ADK / RFU, RASSF2 / Fold change vs veh, RASSF2 / RFU, WIPF1 / Fold change vs veh, WIPF1 / RFU, LARP1B / Fold change vs veh, LARP1B / RFU, RASA1 / Fold change vs veh, RASA1 / RFU, RB1 / Fold change vs veh, RB1 / RFU, PPFIA1 / Fold change vs veh, PPFIA1 / RFU, MAT2A / Fold change vs veh, MAT2A / RFU, CCT5 / Fold change vs veh, CCT5 / RFU, WDR92 / Fold change vs veh, WDR92 / RFU, CUX1 / Fold change vs veh, CUX1 / RFU, TTC7A / Fold change vs veh, TTC7A / RFU, TMEM135 / Fold change vs veh, TMEM135 / RFU, DEPTOR / Fold change vs veh, DEPTOR / RFU, CPM / Fold change vs veh, CPM / RFU, DNAJB6 / Fold change vs veh, DNAJB6 / RFU, CACNA2D3 / Fold change vs veh, CACNA2D3 / RFU, DTX4 / Fold change vs veh, DTX4 / RFU, TFCP2 / Fold change vs veh, TFCP2 / RFU, GMCL1 /// GMCL1P1 / Fold change vs veh, GMCL1 /// GMCL1P1 / RFU, AEBP2 / Fold change vs veh, AEBP2 / RFU, SNHG1 /// SNORD22 /// SNORD25 /// SNORD26 /// SNORD27 /// SNORD28 /// SNORD29 /// SNORD31 / Fold change vs veh, SNHG1 /// SNORD22 /// SNORD25 /// SNORD26 /// SNORD27 /// SNORD28 /// SNORD29 /// SNORD31 / Fold change (Aza/veh), C12orf56 (ProbeSet 11735607_a_at) / Fold change (ACY-1035/veh), C12orf56 (ProbeSet 11735607_a_at) / Fold change (Aza/veh), FGFR1OP (ProbeSet 11751329_s_at) / Fold change (ACY-1035/veh), FGFR1OP (ProbeSet 11751329_s_at) / Fold change (Aza/veh), VPS36 (ProbeSet 11739960_a_at) / Fold change (ACY-1035/veh), VPS36 (ProbeSet 11739960_a_at) / RFU SYPL1 (11715823_x_at) / Fold change /veh SYPL1 (11715823_x_at) / RFU IGFBP7 (11715501_s_at) / Fold change /veh IGFBP7 (11715501_s_at) / RFU REEP3 (11722064_at) / Fold change /veh REEP3 (11722064_at) / RFU IGLL1 (11728026_x_at) / Fold change /veh IGLL1 (11728026_x_at): dose or concentration left out as unconfirmed", "conditions": "MV-4-11 cells, 48 hours", "data": [{"smiles": "Nc1ncn([C@@H]2O[C@H](CO)[C@@H](O)[C@H]2O)c(=O)n1", "note": "[azacitidine]", "values": [{"measurement": "Fold change /veh ID3 (11757404_x_at)", "value": 1.09}]}]}
